System: MCPP-induced Hypolocomotion
Assay: Reversal of MCPP-induced Hypolocomotion
Format: in vivo
Conditions: po, procedure of WO 94/04533, read-out: ID50 (the source's name)
Method: Reversal of MCPP-induced Hypolocomotion
Compounds were tested following the procedure outlined in WO 94/04533. The compound of example 8 has an ID50 of 10.0 mg/kg p.o.

## CSc1cc2c(cc1C(F)(F)F)N(C(=O)Nc1cccc(C(=O)NCCN(C)C)c1)CC2 [Example 8, 5-Methylthio-6-trifluoromethyl-1-[3-[(2-dimethylaminoethyl)carbamoyl]phenylcarbamoyl]indoline]
  ED50: 10 mg/kg
